Experiment in all cases: ≥ marks a high value that may be exact or a test limit, other limits are often not marked, values filed in µg/mL are converted to µM
Assay [1] deals with Candida albicans ATCC 10231.
The subject of assay [2] is Pseudomonas aeruginosa ATCC 9027.
The subject of assay [3] is Escherichia coli ATCC 25922.
For assay [4], the system named is Klebsiella pneumoniae.
In assay [5] the test system is Bacillus subtilis.
The test system of assay [6] is Escherichia coli KCTC 1682.
For assay [7], the system named is Salmonella typhimurium KCTC 1926.
In assay [8] the test system is Staphylococcus aureus KCTC 1621.
The subject of assay [9] is Pseudomonas aeruginosa KCTC 1637.
Assay [10] deals with Staphylococcus epidermidis KCTC 1917.
Assay [11] has as its system Bacillus subtilis KCTC 3068.
Assay [12] deals with Staphylococcus aureus ATCC 6538.
The subject of assay [13] is Pseudomonas aeruginosa ATCC 27853.
Assay [14] relates to Escherichia coli K-12.
For assay [15], the system named is Escherichia coli NCTC 10418.
The test system of assay [16] is Candida albicans.
Assay [17] has as its system Staphylococcus aureus ATCC 25923.
For assay [18], the system named is Escherichia coli DH5alpha.

Structures are written as SMILES. Values after ≈ are worked out from the molar mass of the structure shown.

In the case of `N[C@@H](CC(=O)O)C(=O)N[C@@H](CC(=O)O)C(=O)N[C@@H](CC(=O)O)C(=O)N[C@@H](Cc1ccc(O)cc1)C(=O)O` [DDDY], the minimal inhibitory concentration (MIC) is 4290 µM (≈ 2260 µg/mL) in assay [1], 68700 µM (≈ 36200 µg/mL) in assay [2] and 8580 µM (≈ 4520 µg/mL) in assay [3].
For `CC[C@H](C)[C@H](NC(=O)[C@H](C)NC(=O)[C@H](CCCCN)NC(=O)[C@H](C)NC(=O)[C@H](CCSC)NC(=O)CNC(=O)CNC(=O)[C@H](CC(C)C)NC(=O)[C@@H](NC(=O)[C@@H](NC(=O)[C@H](CC(N)=O)NC(=O)CNC(=O)[C@H](CCSC)NC(=O)[C@H](CCCN=C(N)N)NC(=O)[C@H](CCC(=O)O)NC(=O)[C@H](CC(=O)O)NC(=O)[C@@H](NC(=O)[C@H](CCCCN)NC(=O)[C@H](CCCCN)NC(=O)[C@H](CCC(N)=O)NC(=O)[C@@H](NC(=O)[C@H](CCCCN)NC(=O)[C@H](CCC(=O)O)NC(=O)[C@H](CCC(=O)O)NC(=O)[C@H](CC(N)=O)NC(=O)[C@@H](NC(=O)[C@H](Cc1c[nH]c2ccccc12)NC(=O)CN)[C@@H](C)CC)[C@@H](C)CC)[C@@H](C)CC)[C@@H](C)O)C(C)C)C(=O)N[C@H](C(=O)N[C@@H](Cc1cnc[nH]1)C(=O)N[C@@H](CCCCN)C(=O)N[C@@H](CCSC)C(=O)N[C@@H](C)C(=O)N[C@@H](CCCCN)C(=O)N[C@@H](CC(N)=O)C(=O)N[C@@H](CCC(=O)O)C(=O)N[C@@H](Cc1ccccc1)C(=O)N[C@@H](CCC(N)=O)C(=O)N[C@H]1CSSC[C@@H]2NC(=O)[C@H](Cc3ccc(O)cc3)NC(=O)CNC(=O)[C@H](CCCCN)NC(=O)[C@H](CCC(=O)O)NC(=O)CNC(=O)[C@H](CO)NC(=O)[C@H]([C@@H](C)O)NC(=O)[C@H](CCC(N)=O)NC(=O)[C@@H]3CSSC[C@@H](C(=O)NCC(=O)N[C@H](C(=O)N4CCC[C@H]4C(=O)N[C@@H](CC(C)C)C(=O)N[C@@H](CO)C(=O)N[C@@H](Cc4ccc(O)cc4)C(=O)O)[C@@H](C)O)NC(=O)[C@H](CCCCN)NC(=O)[C@H](CSSC[C@H](NC(=O)[C@H](CC(N)=O)NC(=O)CNC(=O)[C@H](CC(C)C)NC(=O)[C@H](CCSC)NC(=O)[C@H](CC(=O)O)NC(=O)[C@H](CCSC)NC(=O)[C@H](CC(N)=O)NC(=O)[C@H](C)NC(=O)[C@H](CCSC)NC1=O)C(=O)N[C@@H](CCC(=O)O)C(=O)N[C@@H](CCCCN)C(=O)N[C@@H](Cc1cnc[nH]1)C(=O)N3)NC(=O)[C@H](CCCCN)NC(=O)[C@H]([C@@H](C)O)NC(=O)CNC(=O)[C@H](Cc1cnc[nH]1)NC2=O)C(C)C` [GWINEEKIQKKIDERMGNTVLGGMAKAIVHKMAKNEFQCMANMDMLGNCEKHCQTSGEKGYCHGTKCKCGTPLSY], the values for the MIC in assay [4] and in assay [5] were 10 µM (≈ 83.5 µg/mL) and 1 µM (≈ 8.35 µg/mL), respectively.
Turning to `CC[C@H](C)[C@H](N)C(=O)N[C@@H](CC(C)C)C(=O)NCC(=O)N[C@@H](CCCCN)C(=O)N[C@H](C(=O)N[C@@H](CC(C)C)C(=O)N[C@@H](CCCCN)C(=O)NCC(=O)N[C@H](C(=O)N[C@@H](CCCCN)C(=O)N[C@@H](CCCCN)C(=O)N[C@@H](CC(C)C)C(=O)N[C@@H](Cc1ccccc1)C(N)=O)[C@@H](C)CC)[C@@H](C)CC` [ILGKILKGIKKLF], the minimum inhibitory concentration (MIC) in [6] came to 2 µM (≈ 2.94 µg/mL); in assay [7], 1 µM (≈ 1.47 µg/mL); in [8], 2 µM (≈ 2.94 µg/mL); in [9], 2 µM (≈ 2.94 µg/mL); in [10], 1 µM (≈ 1.47 µg/mL).
Turning to `NCCCC[C@H](NC(=O)[C@H](CCCCN)NC(=O)[C@H](Cc1c[nH]c2ccccc12)NC(=O)[C@H](CCCCN)NC(=O)[C@@H]1CCCN1C(=O)[C@H](Cc1c[nH]c2ccccc12)NC(=O)[C@H](Cc1c[nH]c2ccccc12)NC(=O)[C@@H]1CCCN1C(=O)[C@H](CCCCN)NC(=O)[C@H](Cc1c[nH]c2ccccc12)NC(=O)[C@H](Cc1c[nH]c2ccccc12)NC(=O)[C@@H]1CCCN1C(=O)[C@H](CCCCN)NC(=O)[C@@H](N)CCCCN)C(=O)O` [KKPWWKPWWPKWKK], the minimal inhibitory concentration (MIC) in assay [6] came to 2 µM (≈ 4.02 µg/mL); in assay [7] it was 2 µM (≈ 4.02 µg/mL); in [8] it was 2 µM (≈ 4.02 µg/mL); in [11] it was 1 µM (≈ 2.01 µg/mL); in assay [9] it was 4 µM (≈ 8.04 µg/mL); in assay [10], 1 µM (≈ 2.01 µg/mL).
In the case of `CC[C@H](C)[C@H](NC(=O)[C@H](CCCCN)NC(=O)[C@H](CCCCN)NC(=O)[C@H](Cc1ccccc1)NC(=O)[C@H](C)NC(=O)[C@H](CCCCN)NC(=O)[C@H](Cc1c[nH]c2ccccc12)NC(=O)[C@@H](N)CCCCN)C(=O)N[C@@H](CCC(=O)O)C(=O)N[C@@H](CCCCN)C(=O)N[C@@H](CCSC)C(=O)N[C@H](C(=O)N[C@@H](CCCN=C(N)N)C(=O)N[C@@H](CC(N)=O)C(=O)N[C@H](C(=O)N[C@@H](CCCN=C(N)N)C(=O)N[C@@H](CC(N)=O)C(=O)N[C@@H](CCCCN)C(=O)N[C@H](C(=O)N[C@H](C(=O)N[C@@H](CCCCN)C(N)=O)C(C)C)[C@@H](C)CC)[C@@H](C)CC)[C@@H](C)CC` [KWKAFKKIEKMIRNIRNKIVK], the results for the minimum inhibitory concentration (MIC) in assay [12], in assay [13] and in assay [14] were above 12 µM, above 3 µM and 3 µM (≈ 8.01 µg/mL), respectively.
In [14], `CC[C@H](C)[C@H](NC(=O)[C@H](CCCN=C(N)N)NC(=O)[C@H](CCC(N)=O)NC(=O)[C@@H](NC(=O)[C@@H](NC(=O)[C@H](CCCN=C(N)N)NC(=O)[C@H](CCCCN)NC(=O)[C@H](Cc1ccccc1)NC(=O)[C@H](CC(=O)O)NC(=O)CNC(=O)[C@H](CC(C)C)NC(=O)[C@@H](N)CC(C)C)[C@@H](C)CC)C(C)C)C(=O)N[C@@H](CCCCN)C(=O)N[C@@H](CC(=O)O)C(=O)N[C@@H](Cc1ccccc1)C(N)=O` [LLGDFKRIVQRIKDF] displayed an MIC of at least 250 µM.
On to `CC[C@H](C)[C@H](NC(=O)[C@H](CCCN=C(N)N)NC(=O)[C@H](Cc1c[nH]c2ccccc12)NC(=O)[C@H](CC(C)C)NC(=O)[C@@H](N)CCCN=C(N)N)C(=O)N[C@H](C(=O)N[C@H](C(=O)N[C@H](C(=O)N[C@@H](CCCN=C(N)N)C(=O)N[C@H](C(=O)N[C@@H](Cc1c[nH]c2ccccc12)C(=O)N[C@@H](CCCN=C(N)N)C(N)=O)C(C)C)[C@@H](C)CC)C(C)C)C(C)C` [RLWRIVVIRVWR], for which the minimal inhibitory concentration (MIC) in assay [6] is 30.3 µM (≈ 50 µg/mL); in [7], 15.1 µM (≈ 25 µg/mL); in assay [8], 15.1 µM (≈ 25 µg/mL); in [11], 30.3 µM (≈ 50 µg/mL); in [9], 15.1 µM (≈ 25 µg/mL); in assay [10] it was 15.1 µM (≈ 25 µg/mL).
The compound `CC[C@H](C)[C@H](NC(=O)CNC(=O)[C@@H]1CCCN1C(=O)[C@@H]1CCCN1C(=O)[C@H](Cc1ccccc1)NC(=O)[C@H](Cc1ccccc1)NC(=O)[C@@H]1CCCN1C(=O)[C@H](Cc1ccccc1)NC(=O)[C@@H](N)CO)C(=O)N[C@H]1CSSC[C@@H](C(=O)O)NC(=O)[C@H](CCCN=C(N)N)NC(=O)[C@H](CCCCN)NC(=O)[C@H](CC(C)C)NC(=O)[C@H](CCCN=C(N)N)NC(=O)[C@H](CCCCN)NC1=O` [SFPFFPPGICKRLKRC] yielded a minimal inhibitory concentration (MIC) in [15] of at least 35 µM.
`CC[C@H](C)[C@H](NC(=O)CNC(=O)[C@H](CC(N)=O)NC(=O)[C@@H](NC(=O)[C@H](C)NC(=O)[C@H](CC(N)=O)NC(=O)[C@H](CC(C)C)NC(=O)[C@H](C)NC(=O)[C@H](C)NC(=O)[C@H](CCCN=C(N)N)NC(=O)CNC(=O)[C@H](C)NC(=O)[C@H](C)NC(=O)[C@H](C)NC(=O)[C@H](C)NC(=O)[C@H](CCSC)NC(=O)[C@H](CC(=O)O)NC(=O)[C@H](CCCCN)NC(=O)[C@@H](NC(=O)[C@H](CO)NC(=O)[C@H](CO)NC(=O)[C@H](Cc1c[nH]c2ccccc12)NC(=O)[C@H](CC(C)C)NC(=O)[C@@H](N)CO)[C@@H](C)CC)C(C)C)C(=O)N[C@H](C(=O)N[C@@H](CC(N)=O)C(=O)N1CCC[C@H]1C(N)=O)C(C)C` [SLWSSIKDMAAAAGRAALNAVNGIVNP]: the MIC in assay [4] is above 190 µM; in assay [3], 47.5 µM (≈ 128 µg/mL); in assay [16] it was above 190 µM; in assay [17] it was 190 µM (≈ 512 µg/mL).
In the case of `CC[C@H](C)[C@H](NC(=O)[C@H](Cc1ccccc1)NC(=O)[C@@H](NC(=O)[C@H](Cc1c[nH]c2ccccc12)NC(=O)[C@H](CCCN=C(N)N)NC(=O)[C@H](CCCCN)NC(=O)[C@H](CCCN=C(N)N)NC(=O)[C@H](CCCCN)NC(=O)[C@H](Cc1c[nH]c2ccccc12)NC(=O)[C@H](CC(C)C)NC(=O)[C@@H](NC(=O)[C@@H](N)Cc1ccc(O)cc1)C(C)C)[C@@H](C)CC)C(=O)O` [YVLWKRKRWIFI], the MIC in assay [18] is at least 60 µM; in assay [13], 150 µM (≈ 256 µg/mL); in assay [5], 5 µM (≈ 8.54 µg/mL); in assay [17], 40 µM (≈ 68.3 µg/mL).

For the origin of these results see DBAASP.
